The source of these data is US20260285853A1, “COMPOUNDS AND METHODS FOR MODULATING SPLICING” (REMIX THERAPEUTICS INC., priority 2023, published 2026).

Assay type in all cases: cell-based
The subject of assay [1] is SH-SY5Y (human neuroblastoma) cells. Nature of the assay: Cell viability, Cell Titer Glo 2.0 assay. Conditions: read-out: Viability SHSY5Y.3 GI50. As to the method:
Compounds described herein were screened for toxicity in K562 (human chronic myelogenous leukemia) and SH-SY5Y (human neuroblastoma) cells using a Cell Titer Glo 2.0 assay.
• Promega CellTiter-Glo® 2.0 Cell Viability Assay (cat #G9241) • Corning 384-well TC-treated microplates (cat #3570)
Cells were plated at 500 cells/well (K562 cells) in 45 μL of IMDM supplemented with 10% FBS in a 384-well opaque plate. Wells containing only medium were used as a blank control. Test compounds (e.g., compounds of Formula (I) or (II) were first serially diluted in DMSO then diluted 1:100 with IMDM+10% FBS. The final concentration of DMSO was 0.1% in each well. The cells were incubated for 72 hours at 37° C. and 5% CO2 before assaying with Cell Titer Glo 2.0 reagent.
Background: Cellular ATP, detected with luciferase, serves as a proxy for viable cell number.

Assay [2] deals with MYB mRNA. Description: Splicing RT-qPCR assay (THP), Table 2A. Conditions: Table 2A (THP); for AC50: AJ mRNA increase, read-out: MYB AJ (increase in alternative junction mRNA, AC50); for IC50: CJ mRNA decrease, read-out: MYB CJ (decrease in canonical junction mRNA, IC50). In general terms: Real-time PCR tracks product formation cycle by cycle.
In assay [3] the test system is MYB mRNA. Description: Gene panel canonical junction qPCR assay, decrease in CJ mRNA, Table 3. Conditions: decrease in canonical junction (CJ) mRNA, gene panel qPCR, Table 3. As to the method:
(§1) Compounds described herein were used to modulate RNA transcript abundance in cells. The expression of a target mRNA was measured by detecting the formation of an exon-exon junction in the canonical transcript (CJ). A compound mediated exon-inclusion event was detected by observing an increase in formation of a new junction with an alternative exon (AJ). Real-time qPCR assays were used to detect these splicing switches and interrogate the potency of various compounds towards different target genes. A high-throughput real time quantitative PCR (RT-qPCR) assay was developed to measure these two isoforms of the mRNA (CJ and AJ) for exemplary genes, such as HTT, SMN2, and MYB, together with a control housekeeping gene, GAPDH or GUSB or PPIA, used for normalization. Briefly, the A673 or K562 cell line was treated with various compounds described herein (e.g., compounds of Formula (I)). After treatment, the levels of the HTT, MYB, or SMN2 mRNA targets were determined from each sample of cell lysate by cDNA synthesis followed by qPCR.
(§2) The A673 cell line was cultured in DMEM with 10% FBS. Cells were diluted with full growth media and plated in a 96-well plate (15,000 cells in 100 ul media per well). The plate was incubated at 37° C. with 5% CO2 for 24 hours to allow cells to adhere. An 11-point 3-fold serial dilution of the compounds was made in DMSO then diluted in media in an intermediate plate. Compounds were transferred from the intermediate plate to the cell plate with the top dose at a final concentration of 10 uM in the well. Final DMSO concentration was kept at or below 0.25%. The cell plate was returned to the incubator at 37° C. with 5% CO2 for an additional 24 hours.
(§3) The K562 cell line was cultured in IMDM with 10% FBS. For K562, cells were diluted with full growth media and plated in either a 96-well plate (50,000 cells in 50 uL media per well) or a 384-well plate (8,000-40,000 cells in 45 uL media per well). An 11-point 3-fold serial dilution of the compounds were made in DMSO then diluted in media in an intermediate plate. Compound was transferred from the intermediate plate to the cell plate with the top dose at a final concentration of 10 uM in the well. Final DMSO concentration was kept at or below 0.25%. Final volume was 100 uL for 96-well plate and 50 uL for 384-well plate. The cell plate was then placed in an incubator at 37° C. with 5% CO2 for 24 hours.
(§4) The data analysis was performed by first determining the ΔCt vs the housekeeper gene. This ΔCt was then normalized against the DMSO control (ΔΔCt) and converted to RQ (relative quantification) using the 2^(−ΔΔCt) equation. The RQ were then converted to a percentage response by arbitrarily setting an assay window of 3.5 and 4.0 ΔCt for HTT-CJ and MYB-CJ respectively and an assay window of 9 and 3 ΔCt for HTT-AJ and MYB-AJ in 96 well format (50,000 K562 cells/well and 15,000 A673 cells per well) and an assay window of 3 and 4 ΔCt for HTT-CJ and MYB-CJ respectively and an assay window of 5 and 3 ΔCt for HTT-AJ and MYB-AJ respectively in 384 well format (8,000 K562 cells/well example). […] The percentage response was then fitted to the 4 parametric logistic equation to evaluate the concentration dependence of compound treatment. The increase in AJ mRNA is reported as AC50 (compound concentration having 50% response in AJ increase) while the decrease in CJ mRNA levels is reported as IC50 (compound concentration having 50% response in CJ decrease).
(§5) Additional studies were carried out for a larger panel of genes using the protocol provided above. The junction between flanking upstream and downstream exons was used to design canonical junction qPCR assays. At least one of the forward primer, reverse primer or the CY5-labeled 5′ nuclease probe (with 3′ quencher such as ZEN/Iowa Black FQ) was designed to overlap with the exon junction to capture the CJ mRNA transcript. […]

Assay [4] relates to HTT mRNA. Described as above. Conditions: decrease in canonical junction (CJ) mRNA, gene panel qPCR, Table 3. As to the method: as §1, §2, §3, §4, §5
The test system of assay [5] is HTT mRNA. Description: Splicing RT-qPCR assay (THP), Table 2A. Conditions: Table 2A (THP); for AC50: AJ mRNA increase, read-out: HTT AJ (increase in alternative junction mRNA, AC50); for IC50: CJ mRNA decrease, read-out: HTT CJ (decrease in canonical junction mRNA, IC50).

Where only a bound is given, the exact number is not on record here.

Take `Cc1cn2cc(NC(=O)c3ccc(N4CC[C@H]5CNCC[C@H]54)c4cn(C)nc34)nc2c(C)n1` (stereo in doubt) [Compound 502]: the concentration for 50% growth inhibition (GI50) (as a rule, the concentration at which growth is held to half of that of the control) in assay [1] lay within 0.1 to 1 µM. The half-maximal activity concentration (AC50) in assay [2] and in assay [5] was 0.1 to 1 µM throughout. The IC50 in assay [2], in assay [3], in assay [4] and in assay [5] was 0.1 to 1 µM throughout.

On to `Cc1cn2cc(NC(=O)c3ncc(N4CCC(NC5CC5)CC4)c4cn(C)nc34)nc2c(C)n1` [Compound 264, 4-[4-(cyclopropylamino)-1-piperidyl]-N-(6,8-dimethylimidazo[1,2-a]pyrazin-2-yl)-2-methyl-pyrazolo[3,4-c]pyridine-7-carboxamide], for which, in assay [2], the AC50 (as a rule, the concentration giving half of the maximal activity seen) was above 10 µM and the IC50 (in general, the point on the concentration scale where inhibition reaches its midpoint) is above 10 µM. Also, in assay [5], the AC50 was above 10 µM and the IC50 is above 10 µM.

Take `Cc1cn2cc(NC(=O)c3ccc(N4CCNCC4)c4cn(C)nc34)cc(Br)c2n1` [Compound 265, N-(8-bromo-2-methyl-imidazo[1,2-a]-pyridin-6-yl)-2-methyl-4-piperazin-1-yl-indazole-7-carboxamide]: the GI50 in assay [1] was in the range of 1 to 10 µM.

As for `CCNC1CCN(c2cc(F)c(C(=O)Nc3cn4c(N)c(C)nc4c(F)c3OC)c3nn(C)cc23)CC1` [Compound 310, N-(3-amino-8-fluoro-7-methoxy-2-methyl-imidazo[1,2-a]pyridin-6-yl)-4-[4-(ethylamino)-1-piperidyl]-6-fluoro-2-methyl-indazole-7-carboxamide], in assay [1], the 50% growth inhibitory concentration (GI50) is above 10 µM. Moreover, the AC50 in assay [2] and in assay [5] was above 10 µM each time. Besides, the IC50 in assay [2], in assay [3], in assay [4] and in assay [5] was above 10 µM each time.

With `CCNC1CCN(c2ccc(C(=O)Nc3cn4cc(CC)nc(C)c4n3)c3nn(C)cc23)CC1` [Compound 311, N-(6-ethyl-8-methylimidazo [1,2-a]pyrazin-2-yl)-4-(4-(ethylamino)piperidin-1-yl)-2-methyl-2H-indazole-7-carboxamide 2,2,2-trifluoroacetate], in assay [1], the concentration for 50% growth inhibition (GI50) was above 10 µM. Besides, the AC50 in assay [2] and in assay [5] was above 10 µM in each case. Besides, the half-maximal inhibitory concentration (IC50) in assay [2], in assay [3], in assay [4] and in assay [5] was above 10 µM throughout.

Take `CCNC1CCN(c2ccc(C(=O)Nc3cn4cc(C)nc(C5CC5)c4n3)c3nn(C)cc23)CC1` [Compound 312, N-(8-cyclopropyl-6-methyl-imidazo[1,2-a]pyrazin-2-yl)-4-[4-(ethylamino)-1-piperidyl]-2-methyl-indazole-7-carboxamide]: the GI50 in assay [1] lay within 1 to 10 µM. The AC50 in assay [2] and in assay [5] was 1 to 10 µM in each case. For the same compound, the IC50 in assay [2], in assay [3], in assay [4] and in assay [5] was 1 to 10 µM each time.

Regarding `CCNC1CCN(c2ccc(C(=O)Nc3cc(Oc4ccccc4Cl)c4nc(C)cn4c3)c3nn(C)cc23)CC1` [Compound 313, N-[8-(2-chlorophenoxy)-2-methylimidazo-[1,2-a]pyridin-6-yl]-4-[4-(ethylamino)-1-piperidyl]-2-methyl-indazole-7-carboxamide], the GI50 in assay [1] lay in the range of 1 to 10 µM. Moreover, the AC50 in assay [2] was 1 to 10 µM; in assay [5], above 10 µM. The IC50 in assay [2], in assay [3], in assay [4] and in assay [5] was above 10 µM each time.

On to `CCNC1CCN(c2ccc(C(=O)Nc3cc(Oc4cccc(Cl)c4)c4nc(C)cn4c3)c3nn(C)cc23)CC1` [Compound 314, N-[8-(3-chlorophenoxy)-2-methylimidazo-[1,2-a]pyridin-6-yl]-4-[4-(ethylamino)-1-piperidyl]-2-methyl-indazole-7-carboxamide], for which the GI50 in assay [1] is 0.1 to 1 µM. Moreover, the AC50 is below 0.1 µM in assay [2] and 1 to 10 µM in assay [5]. In addition, the IC50 lay within 0.1 to 1 µM in assay [2], 0.1 to 1 µM in assay [3], 1 to 10 µM in assay [4] and 1 to 10 µM in assay [5].

For the compound `CCNC1CCN(c2ccc(C(=O)Nc3cc(Oc4ccccc4C#N)c4nc(C)cn4c3)c3nn(C)cc23)CC1` [Compound 315, N-[8-(2-cyano-phenoxy)-2-methyl-imidazo[1,2-a]pyridin-6-yl]-4-[4-(ethylamino)-1-piperidyl]-2-methyl-indazole-7-carboxamide], in assay [1], the GI50 is 1 to 10 µM. Moreover, the concentration at half-maximal activity (AC50) in assay [2] was 1 to 10 µM; in assay [5] it was above 10 µM. The IC50 in assay [2], in assay [3], in assay [4] and in assay [5] was above 10 µM each time.

On to `CCNC1CCN(c2ccc(C(=O)Nc3cc(Oc4ccccc4C)c4nc(C)cn4c3)c3nn(C)cc23)CC1` [Compound 316, 4-[4-(ethylamino)-1-piperidyl]-2-methyl-N-[2-methyl-8-(2-methylphenoxy)imidazo[1,2-a]pyridin-6-yl]indazole-7-carboxamide], for which the GI50 in assay [1] lay in the range of 1 to 10 µM. Further, the AC50 in assay [2] and in assay [5] was above 10 µM each time. Moreover, the IC50 in assay [2] was 1 to 10 µM; in assay [3] it was 1 to 10 µM; in assay [4] it was above 10 µM; in assay [5], above 10 µM.

Consider `CCNC1CCN(c2ccc(C(=O)Nc3cc(C(N)=O)c4nc(C)cn4c3)c3nn(C)cc23)CC1` [Compound 317, N-(8-carbamoyl-2-methylimidazo[1,2-a]pyridin-6-yl)-4-(4-(ethylamino)piperidin-1-yl)-2-methyl-2H-indazole-7-carboxamide 2,2,2-trifluoroacetate], for which, in assay [1], the GI50 was above 10 µM. The AC50 in assay [2] and in assay [5] was above 10 µM each time. Moreover, the half-inhibitory concentration (IC50) in assay [2], in assay [3], in assay [4] and in assay [5] was above 10 µM each time.

Consider `CCNC1CCN(c2ccc(C(=O)Nc3cc(C(=O)O)c4nc(C)cn4c3)c3nn(C)cc23)CC1` [Compound 318, 6-[[4-[4-(ethylamino)-1-piperidyl]-2-methyl-indazole-7-carbonyl]amino]-2-methyl-imidazo[1,2-a]pyridine-8-carboxylic acid 2,2,2-trifluoroacetic acid], for which the GI50 in assay [1] was above 10 µM. Moreover, the AC50 in assay [2] and in assay [5] was above 10 µM each time. Moreover, the IC50 in assay [2], in assay [3], in assay [4] and in assay [5] was above 10 µM throughout.
